From US7553823B2, “C-pyrazole A2A receptor agonists” (CV Therapeutics, Inc., priority 1999, dated 2009)
Like-named read-outs stand apart in the source and are kept apart here. One block for each molecule: values may come before it.

Assays:
A2A AdoR [1] = experiment: Coronary blood flow and reversal time of coronary vasodilation in open-chest anesthetized pigs; settings: pig
Procedure: Farm pigs weighing 22-27 kg were used in this study. […] In addition, animals were used in accordance with the guidelines of the University of Kentucky Institutional Animal Care and Use Protocol.
Anesthesia was anesthetized with ketamine (20 mg/kg, i.m.) and sodium pentobarbital (15-18 mg/kg i.v.). Anesthesia was maintained with additional sodium pentobarbital (1.5-2 mg/kg, i.v.) every 15-20 minutes. Ventilation was maintained via a tracheotomy using a mixture of room air and 100% O2. Tidal volume, respiratory rate and fraction of O2 in inspired air were adjusted to maintain normal arterial blood gas (ABG) and pH values. […] Lactate Ringers solution was administered via an ear or femoral vein, at 5-7 ml/kg/min after a initial bolus of 300-400 ml. A catheter was inserted into the femoral artery to monitor arterial blood pressure and to obtain ABG samples.
The heart was exposed through a median sternotomy, and suspended in a pericardial cradle. Left ventricular pressure (LVP) was measured with a 5F high fidelity pressure sensitive tip transducer (Millar Instruments, Houston, Tex.) placed in the left ventricular cavity via the apex and secured with a purse string suture. A segment of the left anterior descending coronary artery (LAD), proximal to the origin of the first diagonal branch, was dissected free of, surrounding tissue. A transmit time perivascular flow probe (Transonic Systems Inc., Ithaca, N.Y.) was placed around this segment to measure coronary blood flow (CBF). Proximal to the flow probe a 24 g modified angiocatheter was inserted for intracoronary infusions. […] A2A AdoR agonists were dissolved in DMSO to produce stock concentrations of 1-5 mM, which were diluted in 0.9% saline and infused at rates of 1-1.5 ml/min. The A2A AdoR agonists were administered intracoronary. To maintain blood pressure constant, phenylephrine was administered intravenously. The phenylephrine stock solution (30 mM) was prepared in distilled water.
Prior to initiating the experiment, a 30-minute stabilization period followed the completion of all instrumentation. After obtaining the baseline hemodynamic data the first intracoronary infusion of an A2A ADOR agonist was initiated. Infusions were maintained for 4-5 minutes to allow LAD CBF to reach a steadystate, after which the infusion was terminated. The time to recovery of 50% (t 0.5) and 90% (t 0.9) of baseline CBF were recorded. Ten to 15 minutes after CBF returned to pre-drug values a second infusion with a different agonist was started. […] The effect of a maximum of three different agonists was determined in each experiment.

A1 AdoR = biological target: T1, A1 AdoR (Rattus norvegicus, UniProt P25099); experiment: A-V nodal conduction time (negative dromotropic effect) in rat isolated perfused hearts; settings: Compound 18 0.1-30 μM, CVT510 100-400 nM
T1 construct: from tissue; host or cells: Sprague Dawley rat isolated perfused heart
T1 sequence (P25099 1-326): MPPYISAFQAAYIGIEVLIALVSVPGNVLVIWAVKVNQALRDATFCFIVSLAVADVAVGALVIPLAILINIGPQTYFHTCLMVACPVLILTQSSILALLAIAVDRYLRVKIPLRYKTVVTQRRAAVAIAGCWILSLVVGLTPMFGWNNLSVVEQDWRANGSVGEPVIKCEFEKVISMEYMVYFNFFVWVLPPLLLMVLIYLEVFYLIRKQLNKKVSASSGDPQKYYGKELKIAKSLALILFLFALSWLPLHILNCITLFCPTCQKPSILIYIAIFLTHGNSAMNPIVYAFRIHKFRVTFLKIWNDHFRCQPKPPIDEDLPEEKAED
Procedure: In experiments in which A1 adenosine receptor-mediated negative dromotropic effect was measured, atrial and ventricular surface electrograms were recorded during constant atrial pacing. The effect of various adenosine receptor agonists on atrioventricular conduction time was determined as described previously by Jenkins and Belardinelli Circ. Res. 63: 97-116 (1988).
Rats and guinea pigs, of either sex weighing from 230 to 260 grams and 300 to 350 grams, respectively, were used in this study. Animals were anesthetized by peritoneal injection of a cocktail containing ketamine and xylazine (ketamine 100 mg, xylazine 20 mg/ml). The chest was opened and the heart quickly removed. The heart was briefly rinse in ice-cold Krebs-Henseleit solution (see below), and the aorta cannulated. […]
A1 adenosine receptor-mediated depression of A-V nodal conduction time (negative dromotropic effect) was measured. Atrial and ventricular surface electrograms in rats and H is bundle electrogram in guinea pigs, were recorded during constant atrial pacing. The effects of Compound 18 on atrioventricular conduction time and stimulus-to-His-bundle (S-H interval) were determined as described previously by Jenkins and Belardinelli (1988).
The effects of Compound 18 on coronary conductance (A2A effect) and atrioventricular conduction time or stimulus-to-His-bundle (S-H) interval (A1 effect) was then determined. […]

human A1 AdoR = biological target: T2, human A1 AdoR (Homo sapiens, UniProt P30542); experiment: Competition binding, [3H]DPCPX binding sites on CHO-hA1AdoR cell membranes; settings: Gpp(NH)p 100 μM
T2 construct: expressed in transfected cells
T2 sequence (P30542 1-326): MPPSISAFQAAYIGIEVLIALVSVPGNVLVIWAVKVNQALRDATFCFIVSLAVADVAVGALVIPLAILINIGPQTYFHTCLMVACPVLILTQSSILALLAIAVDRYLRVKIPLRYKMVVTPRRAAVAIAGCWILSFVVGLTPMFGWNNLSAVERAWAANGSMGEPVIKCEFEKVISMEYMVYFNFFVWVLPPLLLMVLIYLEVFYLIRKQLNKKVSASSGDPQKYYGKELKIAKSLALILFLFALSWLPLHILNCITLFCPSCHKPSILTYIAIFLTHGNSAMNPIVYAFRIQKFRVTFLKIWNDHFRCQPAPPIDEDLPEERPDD

human A2A AdoR = human A2A AdoR (Homo sapiens, UniProt P29274); experiment: Competition binding, [3H]ZM241385 binding sites on HEK-hA2AAR cell membranes; settings: for Ki: HEK-hA2AAR Cells
Procedure: To make membranes, cells were detached from the culture plates into ice-cold 50 mmol/L Tris-HCI buffer (pH7.4). The cell suspensions were homogenized with Polytron at setting 4 for 30 seconds, and spun at 48,000 g for 15 minutes. The pellets were washed three times by re-suspension in ice-cold Tris-HCI buffer and centrifugation. The final pellet was re-suspended in a small volume of Tris-HCI, aliquoted and frozen at −80° C. until used for receptor binding assays. The protein concentration of membrane suspensions was determined using the Bradford method (Bio-Rad) with bovine serum as standards.
At the end of incubation, bound and free radioligands were separated by filtration through Whatman GF/C glass fiber filters using a Brandel tissue harvester (Gaithersburg, Md.). Triplicate determinations were performed for each concentration of the competing agent.
The affinity (Ki) of various CVT compounds for the A1 and A2A adenosine receptor were determined by their potency to compete for [^3H]CPX (A1) or [^3H]ZM241385 (A2A) binding sites on membranes derived from CHO-hA1AdoR, PC12 or HEK-HA2AAdoR cells.

A2A AdoR [2] = biological target: A2A AdoR (Rattus norvegicus, UniProt P30543); experiment: Increase of coronary conductance in rat isolated perfused hearts
Procedure: (§1) Adult Sprague Dawley rats and Hartley guinea pigs of either sex weighing from 230 to 260 grams and 300 to 350 grams, respectively were used in this study. Animals were anesthetized by peritoneal injection of a cocktail containing ketamine and xylazine (ketamine 100 mg, xylazin 20 mg/ml). The chest was opened and the heart quickly removed. The heart was briefly rinse in ice-cold Krebs-Henseleit solution (see below), and the aorta cannulated. […] The heart was electrically paced at a fixed cycle length of 340 ms (250 beats/min) using a bipolar electrode place on the left atrium. The electrical stimuli were generated by a Grass stimulator (Model S48, W. Warwick, R.I.) and delivered through a Stimuli Isolation Unit (Model SIU5, Astro-Med, Inc., NY) as square-wave pulses of 3-msec in duration and amplitude of at least twice the threshold intensity.
Coronary perfusion pressure (CPP) was measured using a pressure transducer, connected to the aortic cannula via a T-connector positioned approximately 3 cm above the heart. Coronary perfusion pressure was monitored throughout the experiment and recorded either on a chart recorder (Gould Recorder 2200S) or a computerized recording system (PowerLab/4S, ADinstruments Pty Ltd, Australia). Only hearts with CPP ranging from 60 to 85 mmHg (in the absence of drugs) were used in the study.
One concentration was made from the stock solution by dilution into saline to yield solution of either 2×10^−4 or 2×10^−5 M. These solutions were injected into the perfusion line of the apparatus as boluses of 20 μl. In some experiments the solutions were placed into a 30 ml glass syringe and the drugs were infused at rates necessary to achieve the desired perfusate concentrations (e.g, 10, 100 nM, etc).
Hearts were instrumented for continuous recording of coronary perfusion pressure (A2A response) and atrioventricular (A-V) conduction time or S-H interval (A1 response).

A2A receptor = A2A receptor (Sus scrofa, UniProt K9IW67); experiment: Affinity for the A2A receptor in a pig striatum membrane prep (displacement of tritiated ZM 241385); format: binding
Procedure: Compounds of this invention were assayed to determine their affinity for the A2A receptor in a pig striatum membrane prep. Briefly, 0.2 mg of pig striatal membranes were treated with adenosine deaminase and 50 mM Tris buffer (pH=7.4) followed by mixing. […] After incubation at 23 C for 2 h, then the solutions were filtered using a membrane harvester using multiple washing of the membranes (3×). The filter disks were counted in scintillation cocktail affording the amount of displacement of tritiated ZM by the competitive binding compounds of this invention. Greater than a 5 point curve was used to generate IC50's and the number of experiments is indicated in the column marked in Table 1 below.

A2A adenosine receptor = A2A adenosine receptor (Rattus norvegicus, UniProt P30543); experiment: Reversal time of coronary vasodilation after bolus injection in rat isolated perfused hearts
Procedure: Animals were anesthetized by peritoneal injection of a cocktail containing ketamine and xylazine (ketamine 100 mg, xylazine 20 mg/ml). The chest was opened and the heart quickly removed. The heart was briefly rinse in ice-cold Krebs-Henseleit solution (see below), and the aorta cannulated. […] The heart was electrically paced at a fixed cycle length of 340 ms (250 beats/min) using a bipolar electrode place on the left atrium. The electrical stimuli were generated by a Grass stimulator (Model S48, W. Warwick, R.I) and delivered through a Stimuli Isolation Unit (Model SIU5, Astro-Med, Inc., NY) as square-wave pulses of 3 msec in duration and amplitude of at least twice the threshold intensity.
Coronary perfusion pressure (CPP) was measured using a pressure transducer, connected to the aortic cannula via a T-connector positioned approximately 3 cm above the heart. Coronary perfusion pressure was monitored throughout the experiment and recorded either on a chart recorder (Gould Recorder 2200S) or a computerized recording system (PowerLab/4S, ADInstruments Pty Ltd, Australia). Only hearts with CPP ranging from 60 to 85 mmHg (in the absence of drugs) were used in the study.
Protocol: Bolus injections. […] The times to 50% (t 0.5) and 90% (t 0.9) reversal of the decrease in CPP were measured. Each heart was exposed to a maximum of three vasodilators.

A2A AdoR [3] = biological target: A2A AdoR (Cavia porcellus, UniProt P46616); experiment: Increase of coronary conductance in guinea pig isolated perfused hearts
Procedure: as §1
Coronary perfusion pressure (CPP) was measured using a pressure transducer, connected to the aortic cannula via a T-connector positioned approximately 3 cm above the heart. Coronary perfusion pressure was monitored throughout the experiment and recorded either on a chart recorder (Gould Recorder 2200S) or a computerized recording system (PowerLab/4S, ADinstruments Pty Ltd, Australia). Only hearts with CPP ranging from 60 to 85 mmHg (in the absence of drugs) were used in the study. […]

[4] = intracoronary infusion 2 μg/kg/min
[5] = intracoronary infusion 30 μg/kg/min
[6] = pig striatal membranes, tritiated ZM 241385 2 nM, 23 C 2 h, read-out: A2a Ki
[7] = rat isolated perfused hearts, bolus into perfusion line
[8] = intracoronary infusion 1 μg/kg/min

A2A AdoR (Rattus norvegicus, UniProt P30543), sequence (P30543 whole entry, the tested form may be a part): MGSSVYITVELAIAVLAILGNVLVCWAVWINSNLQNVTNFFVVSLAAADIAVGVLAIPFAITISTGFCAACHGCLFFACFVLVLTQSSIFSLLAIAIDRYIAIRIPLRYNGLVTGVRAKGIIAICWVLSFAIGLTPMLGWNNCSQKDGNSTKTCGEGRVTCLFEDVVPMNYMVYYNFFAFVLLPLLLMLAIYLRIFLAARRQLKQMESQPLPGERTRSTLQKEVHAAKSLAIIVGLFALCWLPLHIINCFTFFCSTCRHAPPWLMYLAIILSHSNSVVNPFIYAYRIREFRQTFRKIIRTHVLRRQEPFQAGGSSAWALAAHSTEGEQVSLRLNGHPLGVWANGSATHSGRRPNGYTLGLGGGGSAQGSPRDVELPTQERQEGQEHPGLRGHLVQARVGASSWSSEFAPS
A2A adenosine receptor, sequence (P30543 whole entry, the tested form may be a part): as above
A2A receptor, sequence (K9IW67 1-409): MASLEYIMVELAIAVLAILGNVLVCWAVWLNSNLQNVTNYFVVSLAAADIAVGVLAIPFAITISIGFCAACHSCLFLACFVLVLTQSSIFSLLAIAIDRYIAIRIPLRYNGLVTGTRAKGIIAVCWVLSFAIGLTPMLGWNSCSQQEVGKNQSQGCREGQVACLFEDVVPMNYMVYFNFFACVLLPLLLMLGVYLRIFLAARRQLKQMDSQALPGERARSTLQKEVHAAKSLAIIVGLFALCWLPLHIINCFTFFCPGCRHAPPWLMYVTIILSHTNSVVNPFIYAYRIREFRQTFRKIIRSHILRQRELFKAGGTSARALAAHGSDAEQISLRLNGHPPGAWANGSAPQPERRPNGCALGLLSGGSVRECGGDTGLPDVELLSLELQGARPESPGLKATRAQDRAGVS
human A2A AdoR, sequence (P29274 whole entry, the tested form may be a part): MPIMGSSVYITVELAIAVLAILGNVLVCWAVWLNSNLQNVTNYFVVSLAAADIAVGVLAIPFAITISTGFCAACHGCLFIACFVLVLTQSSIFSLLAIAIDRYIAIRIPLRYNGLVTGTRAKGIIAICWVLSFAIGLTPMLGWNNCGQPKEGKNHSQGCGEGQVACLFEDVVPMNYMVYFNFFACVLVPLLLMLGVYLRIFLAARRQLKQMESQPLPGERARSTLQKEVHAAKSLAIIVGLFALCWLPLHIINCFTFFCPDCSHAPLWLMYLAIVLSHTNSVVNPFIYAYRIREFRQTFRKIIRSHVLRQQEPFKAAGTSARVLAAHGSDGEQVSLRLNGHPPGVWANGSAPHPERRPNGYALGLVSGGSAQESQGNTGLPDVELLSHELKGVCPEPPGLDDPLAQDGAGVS
A2A AdoR (Cavia porcellus, UniProt P46616), sequence (P46616 whole entry, the tested form may be a part): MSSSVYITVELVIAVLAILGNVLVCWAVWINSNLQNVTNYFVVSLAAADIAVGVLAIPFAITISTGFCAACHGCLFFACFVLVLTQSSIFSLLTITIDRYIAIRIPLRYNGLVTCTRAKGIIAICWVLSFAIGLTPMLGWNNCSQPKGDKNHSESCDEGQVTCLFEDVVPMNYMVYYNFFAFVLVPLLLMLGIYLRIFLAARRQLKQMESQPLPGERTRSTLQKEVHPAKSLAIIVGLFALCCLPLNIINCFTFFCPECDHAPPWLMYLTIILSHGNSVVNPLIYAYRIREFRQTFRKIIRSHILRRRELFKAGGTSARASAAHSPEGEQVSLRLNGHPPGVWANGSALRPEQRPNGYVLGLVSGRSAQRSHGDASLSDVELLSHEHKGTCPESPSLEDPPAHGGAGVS

Compound: CCNC(=O)[C@H]1O[C@@H](n2cnc3c(N)nc(NCCc4ccc(CCC(=O)O)cc4)nc32)[C@H](O)[C@@H]1O [CGS21680, reference compound]
t0.5, time to 50% reversal of the increase in coronary blood flow (A2A AdoR [1]; [4]): 9.7 ± 0.8 min
t0.9, time to 90% reversal of the increase in coronary blood flow (A2A AdoR [1]; [4]): 21.4 ± 0.8 min

Compound: OC[C@H]1OC(n2cnc3c(N[C@@H]4CCOC4)ncnc32)[C@H](O)[C@@H]1O (stereo partly drawn) [CVT510, 2-{6-[((3R)oxolan-3-yl)amino]purin-9-yl}(4S,3R,5R)-5-(hydroxymethyl)oxolane-3,4-diol, reference compound]
effect on A-V nodal conduction time (A1 AdoR): significantly prolonged

Compound: Nc1nc(-c2cnn(Cc3ccccc3)c2)nc2c1ncn2[C@@H]1O[C@H](CO)[C@@H](O)[C@H]1O [Compound 12, (4S,2R,3R,5R)-2-{6-amino-2-[1-benzylpyrazol-4-yl]purin-9-yl}-5-(hydroxymethyl)oxolane-3,4-diol]
Ki (human A1 AdoR; read-out: Binding Affinity Ki, CHO-hA1AR): 6.35 µM
Ki (human A1 AdoR; read-out: Binding Affinity pKi ± SEM, CHO-hA1AR (converted)): 6.03 µM
CBF ("Fold Increase") above baseline, maximal (A2A AdoR [1]; [5]): 3.78 ± 0.70 fold
t0.5, time to 50% reversal of the increase in coronary blood flow (A2A AdoR [1]; [5]): 2.3 ± 0.6 min
t0.9, time to 90% reversal of the increase in coronary blood flow (A2A AdoR [1]; [5]): 9.6 ± 1.0 min
Ki (human A2A AdoR; Binding Affinity Ki): 13.7 µM
Ki (human A2A AdoR; Binding Affinity pKi ± SEM): 13.5 µM
effect on coronary conductance (A2A AdoR [2]): concentration-dependent increase
relative potency in increasing coronary conductance (A2A AdoR [2]): about as potent as adenosine
Ki (A2A receptor): 6.67 ± 1.12 µM
t 0.5, time to 50% reversal of the increase in coronary conductance (A2A adenosine receptor): 4.1 ± 0.3 min
t 0.9, time to 90% reversal of the increase in coronary conductance (A2A adenosine receptor): 9.8 ± 1.4 min

Compound: CC(C)n1cc(-c2nc(N)c3ncn([C@@H]4O[C@H](CO[Si](C)(C)C(C)(C)C)[C@@H](O[Si](C)(C)C(C)(C)C)[C@H]4O[Si](C)(C)C(C)(C)C)c3n2)cn1 [Compound 16, 9-{(2R,3R,4R,5R)-3,4-bis(1,1,2,2-tetramethyl-1silapropoxy)-5-[(1,1,2,2-tetramethyl-1-silapropoxy)methyl]oxolan-2-yl}-2-[1-(1-methylethyl)pyrazol 4-yl]purine-6-ylamine]
A2A affinity (human A2A AdoR; conclusion of Example 5): low affinity A2A agonist

Ki (A2A receptor; [6]): > 10 µM
Compound: Cn1cc(-c2nc(N)c3ncn([C@@H]4O[C@H](CO)[C@@H](O)[C@H]4O)c3n2)cn1 [Compound 19, (4S,2R,3R,5R)-2-[6-amino-2-(1-methylpyrazol-4-yl)purin-9-yl]-5-(hydroxymethyl)oxolane-3,4-diol]

Ki (A2A receptor; [6]): ~10 µM
Compound: CC(C)n1cc(-c2nc(N)c3ncn([C@@H]4O[C@H](CO)[C@@H](O)[C@H]4O)c3n2)cn1 [Compound 20, (4S,2R,3R,5R)-2-{6-amino-2-[1-(methylethyl)pyrazol-4-yl]purin-9-yl}-5-(hydroxymethyl)oxolane-3,4-diol]

Compound: Nc1nc(-c2cnn(CCCc3ccccc3)c2)nc2c1ncn2C1O[C@H](CO)[C@@H](O)[C@H]1O (stereo partly drawn) [Compound 21, (4S,2R,3R,5R)-2-{6-amino-2-[1-(3-phenylpropyl)pyrazolyl-4-yl]purin-9-yl}-5-(hydroxymethyl)oxolane-3,4-diol]
Ki (A2A receptor; [6]): 6.13 ± 0.582 µM
t 0.5, time to 50% reversal of the increase in coronary conductance (A2A adenosine receptor; [7]): 8.3 ± 0.4 min
t 0.9, time to 90% reversal of the increase in coronary conductance (A2A adenosine receptor; [7]): 12.6 ± 0.4 min

Ki (A2A receptor; [6]): 7.68 µM
Compound: CC(C)(C)c1ccc(Cn2cc(-c3nc(N)c4ncn([C@@H]5O[C@H](CO)[C@@H](O)[C@H]5O)c4n3)cn2)cc1 [Compound 22, (4S,2R,3R,5R)-2-{6-amino-2-[1-(4-t-butylbenzyl)pyrazol-4-yl]purin-9-yl}-5-(hydroxymethyl)oxolane-3,4-diol]

Ki (A2A receptor; [6]): > 100 µM
Compound: Nc1nc(-c2cn[nH]c2)nc2c1ncn2[C@@H]1O[C@H](CO)[C@@H](O)[C@H]1O [Compound 23, (4S,2R,3R,5R)-2-(6-amino-2-pyrazol-4-ylpurin-9-yl)-5-(hydroxymethyl)oxolane-3,4-diol]

t 0.5, time to 50% reversal of the increase in coronary conductance (A2A adenosine receptor; [7]): 28.6 ± 1.1 min
t 0.9, time to 90% reversal of the increase in coronary conductance (A2A adenosine receptor; [7]): 32.8 ± 3.1 min
Compound: CCCCC#Cc1nc(N)c2ncn([C@@H]3O[C@H](C(=O)NCC)[C@@H](O)[C@H]3O)c2n1 [HENECA, reference compound]

Compound: Nc1nc(N/N=C/C2CCCCC2)nc2c1ncn2[C@@H]1O[C@H](CO)[C@@H](O)[C@H]1O [WRC-0470, reference compound]
EC50 (A2A AdoR [3]): 0.0024 ± 0.0011 µM
t0.5, time to 50% reversal of the increase in coronary blood flow (A2A AdoR [1]; [8]): 9.5 ± 0.8 min
t0.9, time to 90% reversal of the increase in coronary blood flow (A2A AdoR [1]; [8]): 22.5 ± 1.6 min
EC50 (A2A AdoR [2]): 0.0006 ± 0.0002 µM
effect on coronary conductance (A2A AdoR [2]): concentration-dependent increase
t 0.5, time to 50% reversal of the increase in coronary conductance (A2A adenosine receptor): 21.9 ± 0.9 min
t 0.9, time to 90% reversal of the increase in coronary conductance (A2A adenosine receptor): 27.9 ± 1.4 min

t 0.5, time to 50% reversal of the increase in coronary conductance (A2A adenosine receptor; [7]): 17.7 ± 1.0 min
t 0.9, time to 90% reversal of the increase in coronary conductance (A2A adenosine receptor; [7]): 28.5 ± 4.0 min
Compound: CCCCCCC#Cc1nc(N)c2ncn([C@@H]3O[C@H](CO)[C@@H](O)[C@H]3O)c2n1 [YT-146, reference compound]
CBF ("Fold Increase") above baseline, maximal (A2A AdoR [1]; [8]): 3.44 ± 0.47 fold
t0.9, time to 90% reversal of the increase in coronary blood flow (A2A AdoR [1]; [8]): 32.9 ± 5.6 min
